Reference: patent US8962596B2 (Array BioPharma Inc., priority 2010, dated 2015)
Counter-ions that a name gives are not always drawn.

Legend:
Format in all cases: biochemical
Human Tyk2 kinase domain = target: T1, Human Tyk2 kinase domain (Homo sapiens, UniProt P29597); assay: Tyk2 Inhibition Assay (Omnia kinase fluorescence peptide substrate assay); conditions: averaged IC50 ranges; assay of Example A; 10 μM (Km app) or 1 mM ATP, 2 nM Tyk2
T1 construct: comprising amino acids 886 to 1187 with 10 additional histidine residues; 10xHis (histidine tag) (C, cleaved yes); made in house
T1 sequence (P29597 886-1187): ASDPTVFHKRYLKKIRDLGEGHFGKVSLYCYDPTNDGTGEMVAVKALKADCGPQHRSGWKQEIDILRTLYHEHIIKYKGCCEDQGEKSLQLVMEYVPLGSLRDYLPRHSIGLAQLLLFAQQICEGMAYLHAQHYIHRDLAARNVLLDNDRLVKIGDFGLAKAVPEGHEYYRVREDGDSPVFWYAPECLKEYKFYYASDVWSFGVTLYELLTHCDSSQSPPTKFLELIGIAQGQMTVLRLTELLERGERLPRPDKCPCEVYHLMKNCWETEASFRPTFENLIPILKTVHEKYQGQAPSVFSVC
Outline: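 2 nM His-tag-cleaved kinase domain (aa 886–1187) with 8 μM Omnia Y12 peptide, 10 μM (Km app) or 1 mM ATP, pH 7.4 HEPES/10 mM MgCl2, 2% DMSO. Fluorescence (ex 360/em 485 nm) every 50 s for 45 min; IC50 from 4-parameter fit of POC, top dose 10 μM.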

JAK1 = target: T2, JAK1 (Homo sapiens, UniProt P23458); assay: JAK1 Inhibition Assay (Omnia kinase fluorescence peptide substrate assay); conditions: averaged IC50 ranges; assay of Example B; 40 μM (Km app) or 1 mM ATP, 15 nM JAK1
T2 construct: purchased Invitrogen Corporation, Carlsbad, Calif; PV4775

JAK3 = target: T3, JAK3 (Homo sapiens, UniProt P52333); assay: JAK3 Inhibition Assay (Omnia kinase fluorescence peptide substrate assay); conditions: averaged IC50 ranges; assay of Example D; 10 μM (Km app) or 1 mM ATP, 2.5 nM JAK3
T3 construct: purchased Invitrogen Corporation, Carlsbad, Calif; PV4080
T3 sequence (P52333 1-1124): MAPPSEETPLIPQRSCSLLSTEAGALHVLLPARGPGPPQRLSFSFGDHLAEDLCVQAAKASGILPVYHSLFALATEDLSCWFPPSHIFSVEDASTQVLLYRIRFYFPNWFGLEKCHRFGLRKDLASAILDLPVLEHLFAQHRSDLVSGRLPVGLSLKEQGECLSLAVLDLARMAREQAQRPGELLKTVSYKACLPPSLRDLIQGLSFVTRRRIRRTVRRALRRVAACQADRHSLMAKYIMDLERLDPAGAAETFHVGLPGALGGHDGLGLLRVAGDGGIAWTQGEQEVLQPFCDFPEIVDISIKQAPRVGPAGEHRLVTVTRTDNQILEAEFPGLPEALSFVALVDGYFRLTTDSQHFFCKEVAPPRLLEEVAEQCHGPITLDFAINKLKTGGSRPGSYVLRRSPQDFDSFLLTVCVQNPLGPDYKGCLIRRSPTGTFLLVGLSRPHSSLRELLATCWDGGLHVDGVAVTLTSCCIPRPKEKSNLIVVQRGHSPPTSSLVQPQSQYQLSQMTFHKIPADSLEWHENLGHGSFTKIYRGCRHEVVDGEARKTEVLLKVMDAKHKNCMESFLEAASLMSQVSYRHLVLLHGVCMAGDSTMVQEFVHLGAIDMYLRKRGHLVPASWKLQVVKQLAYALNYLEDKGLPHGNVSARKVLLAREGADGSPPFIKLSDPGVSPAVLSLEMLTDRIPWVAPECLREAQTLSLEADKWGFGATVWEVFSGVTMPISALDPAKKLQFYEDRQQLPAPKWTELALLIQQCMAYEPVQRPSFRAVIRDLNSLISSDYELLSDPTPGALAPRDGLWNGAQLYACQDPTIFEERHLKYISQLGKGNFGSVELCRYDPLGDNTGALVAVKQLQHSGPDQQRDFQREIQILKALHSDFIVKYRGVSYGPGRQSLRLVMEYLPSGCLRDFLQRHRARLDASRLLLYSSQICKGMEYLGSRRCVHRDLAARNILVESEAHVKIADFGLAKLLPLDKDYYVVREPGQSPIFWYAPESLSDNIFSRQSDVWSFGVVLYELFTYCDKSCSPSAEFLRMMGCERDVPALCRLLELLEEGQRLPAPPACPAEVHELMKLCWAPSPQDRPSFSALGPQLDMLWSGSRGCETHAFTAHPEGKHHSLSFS
Outline: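 Kinase at 2.5 nM with 10 µM Omnia Y7 peptide and 10 µM (Km app) or 1 mM ATP in 25 mM HEPES pH 7.4, 10 mM MgCl2, 1 mM DTT, 0.01% Triton X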

JAK2 = target: T4, JAK2 (Homo sapiens, UniProt O60674); assay: JAK2 Inhibition Assay (Omnia kinase fluorescence peptide substrate assay); conditions: averaged IC50 ranges; assay of Example C; 25 μM (Km app) or 1 mM ATP, 5 nM JAK2
T4 construct: purchased Invitrogen Corporation, Carlsbad, Calif; PV4288
Outline: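 5 nM JAK2 phosphorylated 10 μM Omnia Y7 peptide with ATP at 25 μM (Km app) or 1 mM, in 25 mM HEPES pH 7.4, 10 mM MgCl2, 0.01% Triton X-100, 1 mM DTT, 2% DMSO. Fluorescence (360/485 nm) was read every 50 s for 45 min. 10-point 3-fold series from 10 μM; POC versus uninhibited and background controls, 4-parameter logistic IC50.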

T2 sequence (P23458 whole entry): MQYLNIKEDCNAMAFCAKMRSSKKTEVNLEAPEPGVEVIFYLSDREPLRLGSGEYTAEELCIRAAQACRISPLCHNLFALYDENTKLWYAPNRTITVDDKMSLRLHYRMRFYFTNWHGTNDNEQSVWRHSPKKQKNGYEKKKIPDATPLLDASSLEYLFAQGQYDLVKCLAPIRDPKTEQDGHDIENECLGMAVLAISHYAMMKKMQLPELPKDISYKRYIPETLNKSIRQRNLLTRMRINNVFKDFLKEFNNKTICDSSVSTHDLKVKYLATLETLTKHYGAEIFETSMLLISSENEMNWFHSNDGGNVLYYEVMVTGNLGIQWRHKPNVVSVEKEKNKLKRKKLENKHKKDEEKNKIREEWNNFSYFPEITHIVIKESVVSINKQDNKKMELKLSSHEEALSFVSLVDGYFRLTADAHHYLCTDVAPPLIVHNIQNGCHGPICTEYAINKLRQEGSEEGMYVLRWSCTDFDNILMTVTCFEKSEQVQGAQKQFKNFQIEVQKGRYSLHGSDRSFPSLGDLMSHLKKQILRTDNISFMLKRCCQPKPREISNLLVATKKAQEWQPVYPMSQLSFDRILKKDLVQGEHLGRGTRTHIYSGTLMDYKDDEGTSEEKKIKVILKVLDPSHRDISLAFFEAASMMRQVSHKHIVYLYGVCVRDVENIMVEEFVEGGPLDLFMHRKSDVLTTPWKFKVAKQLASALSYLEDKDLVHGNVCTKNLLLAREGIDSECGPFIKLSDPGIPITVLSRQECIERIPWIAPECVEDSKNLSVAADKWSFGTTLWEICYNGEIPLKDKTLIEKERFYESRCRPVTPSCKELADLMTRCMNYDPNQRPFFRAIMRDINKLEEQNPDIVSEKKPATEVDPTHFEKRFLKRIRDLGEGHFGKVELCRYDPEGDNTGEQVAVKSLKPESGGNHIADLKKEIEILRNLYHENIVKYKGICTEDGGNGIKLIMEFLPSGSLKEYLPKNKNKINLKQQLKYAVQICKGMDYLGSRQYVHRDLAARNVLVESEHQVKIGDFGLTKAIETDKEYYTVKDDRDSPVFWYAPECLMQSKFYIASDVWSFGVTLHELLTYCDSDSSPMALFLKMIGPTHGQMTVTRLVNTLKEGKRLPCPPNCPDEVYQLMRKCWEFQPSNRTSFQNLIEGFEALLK
T4 sequence (O60674 whole entry): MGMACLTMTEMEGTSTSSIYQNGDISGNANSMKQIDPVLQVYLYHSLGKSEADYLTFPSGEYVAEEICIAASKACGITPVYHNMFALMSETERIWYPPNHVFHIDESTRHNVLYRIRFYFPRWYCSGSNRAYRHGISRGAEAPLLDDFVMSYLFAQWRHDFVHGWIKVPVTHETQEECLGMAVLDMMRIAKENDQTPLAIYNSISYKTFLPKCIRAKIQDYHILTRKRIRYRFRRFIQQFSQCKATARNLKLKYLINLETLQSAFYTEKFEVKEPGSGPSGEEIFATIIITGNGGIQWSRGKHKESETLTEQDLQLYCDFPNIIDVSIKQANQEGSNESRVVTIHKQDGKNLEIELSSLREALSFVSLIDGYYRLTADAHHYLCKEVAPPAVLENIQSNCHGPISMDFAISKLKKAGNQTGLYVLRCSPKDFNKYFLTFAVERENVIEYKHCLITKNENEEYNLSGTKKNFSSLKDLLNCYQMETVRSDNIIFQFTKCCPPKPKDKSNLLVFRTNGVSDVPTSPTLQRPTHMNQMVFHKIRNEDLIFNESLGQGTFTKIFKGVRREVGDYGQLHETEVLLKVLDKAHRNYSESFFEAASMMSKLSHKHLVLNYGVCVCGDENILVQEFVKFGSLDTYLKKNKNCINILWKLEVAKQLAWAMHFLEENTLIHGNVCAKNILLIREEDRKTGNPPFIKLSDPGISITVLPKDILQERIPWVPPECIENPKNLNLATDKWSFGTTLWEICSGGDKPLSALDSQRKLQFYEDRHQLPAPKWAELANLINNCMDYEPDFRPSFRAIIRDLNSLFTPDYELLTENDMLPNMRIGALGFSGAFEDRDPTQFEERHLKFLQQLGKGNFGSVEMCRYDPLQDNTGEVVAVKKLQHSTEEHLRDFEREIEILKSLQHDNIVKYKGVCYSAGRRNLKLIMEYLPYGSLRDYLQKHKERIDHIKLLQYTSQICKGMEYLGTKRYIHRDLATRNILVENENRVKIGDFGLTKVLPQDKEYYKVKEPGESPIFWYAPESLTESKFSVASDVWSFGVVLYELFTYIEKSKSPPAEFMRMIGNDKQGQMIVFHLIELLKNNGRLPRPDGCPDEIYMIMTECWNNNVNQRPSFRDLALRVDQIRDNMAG

IC50 (Human Tyk2 kinase domain)	IC50 (JAK1)	IC50 (JAK3)	IC50 (JAK2)	Structure (SMILES)
100 to 1000 nM	> 1000 nM	> 1000 nM	100 to 1000 nM	Cc1nn(CCC#N)cc1-c1nc(-c2cnn(C)c2)cc2nccn12 [Example 106, 3-(3-methyl-4-(7-(1-methyl-1H-pyrazol-4-yl)imidazo[1,2-c]pyrimidin-5-yl)-1H-pyrazol-1-yl)propanenitrile]
100 to 1000 nM	> 1000 nM	> 1000 nM	> 1000 nM	Cc1c(-c2nc(-c3cnn(C)c3)cc3nccn23)cnn1CCC#N [Example 107, 3-(5-methyl-4-(7-(1-methyl-1H-pyrazol-4-yl)imidazo[1,2-c]pyrimidin-5-yl)-1H-pyrazol-1-yl)propanenitrile]
10 to 100 nM	> 1000 nM	> 1000 nM	100 to 1000 nM	Cc1nn(C2(CC#N)CN(CC(F)(F)F)C2)cc1-c1nc(-c2cnn(C)c2)cc2nccn12 [Example 108, 2-(3-(3-methyl-4-(7-(1-methyl-1H-pyrazol-4-yl)imidazo[1,2-c]pyrimidin-5-yl)-1H-pyrazol-1-yl)-1-(2,2,2-trifluoroethyl)azetidin-3-yl)acetonitrile]
10 to 100 nM	> 1000 nM	> 1000 nM	100 to 1000 nM	Cc1nn(C(CC#N)C2CC2)cc1-c1nc(-c2cnn(C)c2)cc2nccn12 (stereo not drawn) [Example 109, 3-Cyclopropyl-3-(3-methyl-4-(7-(1-methyl-1H-pyrazol-4-yl)imidazo[1,2-c]pyrimidin-5-yl)-1H-pyrazol-1-yl)propanenitrile]
< 10 nM	10 to 100 nM	100 to 1000 nM	10 to 100 nM	CN1CCC(c2ccc(-c3cc4nccn4c(-c4cnn(C(CC#N)C5CCCC5)c4)n3)cc2)CC1 (stereo not drawn) [Example 110, 3-Cyclopentyl-3-(4-(7-(4-(1-methylpiperidin-4-yl)phenyl)imidazo[1,2-c]pyrimidin-5-yl)-1H-pyrazol-1-yl)propanenitrile]
< 10 nM	10 to 100 nM	100 to 1000 nM	10 to 100 nM	N#CCC(C1CCCC1)n1cc(-c2nc(-c3ccc(N4CCOCC4)cc3)cc3nccn23)cn1 (stereo not drawn) [Example 113, 3-Cyclopentyl-3-(4-(7-(4-morpholinophenyl)imidazo[1,2-c]pyrimidin-5-yl)-1H-pyrazol-1-yl)propanenitrile]
10 to 100 nM	100 to 1000 nM	> 1000 nM	100 to 1000 nM	CC(C)(CC#N)n1cc(-c2nc(-c3ccc(N4CCOCC4)cc3)cc3nccn23)cn1 [Example 116, 3-methyl-3-(4-(7-(4-morpholinophenyl)imidazo[1,2-c]pyrimidin-5-yl)-1H-pyrazol-1-yl)butanenitrile]
< 10 nM	10 to 100 nM	100 to 1000 nM	10 to 100 nM	N#CCC(C1CC1)n1cc(-c2nc(-c3ccc(N4CCOCC4)cc3)cc3nccn23)cn1 (stereo not drawn) [Example 117, 3-cyclopropyl-3-(4-(7-(4-morpholinophenyl)imidazo[1,2-c]pyrimidin-5-yl)-1H-pyrazol-1-yl)propanenitrile]
< 10 nM	10 to 100 nM	100 to 1000 nM	10 to 100 nM	CC(CC#N)n1cc(-c2nc(-c3ccc(N4CCOCC4)cc3)cc3nccn23)cn1 (stereo not drawn) [Example 118, 3-(4-(7-(4-morpholinophenyl)imidazo[1,2-c]pyrimidin-5-yl)-1H-pyrazol-1-yl)butanenitrile]
10 to 100 nM	10 to 100 nM	100 to 1000 nM	10 to 100 nM	CC(C#N)Cn1cc(-c2nc(-c3ccc(N4CCOCC4)cc3)cc3nccn23)cn1 (stereo not drawn) [Example 119, 2-methyl-3-(4-(7-(4-morpholinophenyl)imidazo[1,2-c]pyrimidin-5-yl)-1H-pyrazol-1-yl)propanenitrile]
< 10 nM	10 to 100 nM	> 1000 nM	10 to 100 nM	N#CCCn1cc(-c2nc(-c3ccc(N4CCOCC4)cc3)cc3nccn23)cn1 [Example 120, 3-(4-(7-(4-morpholinophen-yl)imidazo[1,2-c]pyrimidin-5-yl)-1H-pyrazol-1-yl)propanenitrile]
< 10 nM	100 to 1000 nM	> 1000 nM	10 to 100 nM	Cc1nn(C(CC#N)C2CCCC2)cc1-c1nc(-c2ccc(N3CCOCC3)cc2)cc2nccn12 (stereo not drawn) [Example 121, 3-Cyclopentyl-3-(3-methyl-4-(7-(4-morpholinophenyl)imidazo[1,2-c]pyrimidin-5-yl)-1H-pyrazol-1-yl)propanenitrile]
100 to 1000 nM	> 1000 nM	> 1000 nM	> 1000 nM	CC(C)(C)NC(=O)c1cc2nccn2c(-c2cnn(C(CC#N)C3CC3)c2)n1 (stereo not drawn) [Example 122, N-tert-butyl-5-(1-(2-cyano-1-cyclopropylethyl)-1H-pyrazol-4-yl)imidazo[1,2-c]pyrimidine-7-carboxamide]
100 to 1000 nM	> 1000 nM	> 1000 nM	> 1000 nM	N#CCC(C1CC1)n1cc(-c2nc(C(=O)NC3CCCCC3)cc3nccn23)cn1 (stereo not drawn) [Example 123, 5-(1-(2-Cyano-1-cyclopropylethyl)-1H-pyrazol-4-yl)-N-cyclohexylimidazo[1,2-c]pyrimidine-7-carboxamide]
100 to 1000 nM	> 1000 nM	> 1000 nM	> 1000 nM	N#CCC(C1CC1)n1cc(-c2nc(C(=O)NC3CCC3)cc3nccn23)cn1 (stereo not drawn) [Example 124, 5-(1-(2-Cyano-1-cyclopropylethyl)-1H-pyrazol-4-yl)-N-cyclobutylimidazo[1,2-c]pyrimidine-7-carboxamide]
100 to 1000 nM	100 to 1000 nM	> 1000 nM	> 1000 nM	N#CCC(C1CC1)n1cc(-c2nc(C(=O)Nc3ccccn3)cc3nccn23)cn1 (stereo not drawn) [Example 125, 5-(1-(2-cyano-1-cyclopropylethyl)-1H-pyrazol-4-yl)-N-(pyridin-2-yl)imidazo[1,2-c]pyrimidine-7-carboxamide]
< 10 nM	10 to 100 nM	100 to 1000 nM	10 to 100 nM	Cn1cc(-c2cc3nccn3c(-c3ccn(C(CC#N)C4CC4)c3)n2)cn1 (stereo not drawn) [Example 126, 3-Cyclopropyl-3-(3-(7-(1-methyl-1H-pyrazol-4-yl)imidazo[1,2-c]pyrimidin-5-yl)-1H-pyrrol-1-yl)propanenitrile]
10 to 100 nM	100 to 1000 nM	> 1000 nM	100 to 1000 nM	Cn1cc(-c2cc3nccn3c(-c3ccn(C4(CC#N)CNC4)c3)n2)cn1 [Example 127, 2-(3-(3-(7-(1-Methyl-1H-pyrazol-4-yl)imidazo[1,2-c]pyrimidin-5-yl)-1H-pyrrol-1-yl)azetidin-3-yl)acetonitrile trifluoroacetate]
